According to patent US20260166046A1, “Inhibitors of methionine aminopeptidase-2 and methods of preparation and uses thereof” (Primetime Life Sciences LLC, priority 2022, published 2026):
Like-named read-outs stand apart in the source and are kept apart here.

What was measured:
[1] = system: G. lamblia GS; experiment: Trophozoite viability IC50 determination, Giardia assay (ATPLite); type: cell-based; conditions: Giardia duodenalis, read-out: Cell viability values Mean IC50 (nM) G. lamblia GS
Method: (§1) Giardia cultures: Trophozoites of G. lamblia isolates WB and GS were grown anaerobically in borosilicate glass screw-cap culture tubes (Fisher Scientific) at pH 7.0 in modified TYI-S-33 medium. The medium was supplemented with 10% heat-inactivated bovine serum (Sigma-Aldrich) and 0.05% bovine bile (Sigma-Aldrich). To attain low-oxygen-tension conditions, the tubes were filled to 85 to 90% of their total volume capacity and incubated without shaking at 37° C. Subcultures (2×10^5 trophozoites per tube) were made three times a week. Detachment of trophozoites for inoculation was achieved by chilling the cultures on ice for 20 min. Culturing and detachment of Metronidazole-resistant G. lamblia Assemblage A 713M3 and assemblage B 1279-M1 trophozoites followed the same protocol, except that the growth medium was supplemented with metronidazole gradually increasing the concentration to 10 μM. Amebae cultures: E. histolytica strain HM1:IMSS trophozoites were grown at 37° C. in TYI-S-33 medium supplemented with penicillin (100 U/mL) and streptomycin sulfate (100 μg/mL). Trophozoites were grown anaerobically in borosilicate tubes and subcultures were made 1-2 times a week. Trophozoites were detached for inoculation by chilling the cultures on ice for 20 minutes.
(§2) Trophozoite viability IC50determination
(§3) Giardia assays: 10 μL giardia trophozoites in growth medium were plated at a density of 10,000 cells/well in sterile 96-well black clear bottom assay plates. Fumagillin and fumagillol derivatives were 1:3 serially diluted from a 1 μM DMSO stock solution and then 100 μL/well were transferred in duplicate to the assay wells. Metronidazole (control) was 1:3 serially diluted in growth medium from a 100 μM stock solution in DMSO. The assay plates were placed in a BD GasPak™ EZ Container System (BD Diagnostics) to create an anaerobic growth environment. The sealed containers were incubated at 37° C. for 72 hr. Following incubation, 70 μL/well of the ATPLite reagent (PerkinElmer) was added to the assay plates for one-step lysis and ATP level detection. The luminescent signals of the assay plates were measured on an EnSpire 2300 plate reader (PerkinElmer). Concentration response titration points for each compound were fitted to a 4-parameters logistic nonlinear regression model using KaleidaGraph, yielding the IC50value and standard error (SE).

[2] = system: G. lamblia WB; experiment: as above; type: cell-based; conditions: Giardia duodenalis, read-out: Cell viability values Mean IC50 (nM) G. lamblia WB
Method: as §1, §2, §3

[3] = target: T1, Recombinant human MetAP2 (Homo sapiens, UniProt P50579); experiment: MetAP2 fluorescence assay; type: biochemical; conditions: recombinant human MetAP2, H-Met-Gly-Pro-AMC substrate
T1 construct: purchased Bio-Techne/R&D systems
Method: MetAP2 Fluorescence Assay
Recombinant human MetAP2 (Bio-Techne/R&D systems) was diluted to 10 μg/mL in the assay buffer (50 mM HEPES, 0.1 mM CoCl2, 100 mM NaCl, pH 7.5). The substrate, H-Met-Gly-Pro-AMC (Bio-Techne/R&D systems), was diluted to 500 μM with 2 μg/mL of the coupling enzyme, recombinant human dipeptidyl peptidase-4 (Bio-Techne/R&D systems), in assay buffer. 50 μL of 10 μg/mL recombinant human METAP2 were loaded into a flat-bottom black 96-well plate (Greiner Bio), and the reaction was initiated by adding 50 μL of the substrate/dipeptidyl peptidase-4 mixture. The reaction mixture was incubated at room temperature for 10 minutes, and the fluorescence was measured for 5 minutes at excitation and emission wavelengths of 380 nm and 460 nm, respectively, in kinetic mode. For IC50determination, 0.5 μL inhibitor solution was added to the reaction mixture. The reaction rates were used to calculate IC50with KaleidaGraph.

[4] = system: E. histolytica HM1: IMSS; experiment: Trophozoite viability IC50 determination, Amebae assay (ATPLite); type: cell-based; conditions: Entamoeba histolytica, read-out: Cell viability values Mean IC50 (nM) E. histolytica HM1: IMSS
Method: as §1, §2, §3
Amebae assays: The protocol is identical to that described above except that the trophozoites were plated at a density of 5000 cells/well because of their larger size.

[5] = trophozoites, 72 hr, anaerobic, ATP level

T1 sequence (P50579 whole entry): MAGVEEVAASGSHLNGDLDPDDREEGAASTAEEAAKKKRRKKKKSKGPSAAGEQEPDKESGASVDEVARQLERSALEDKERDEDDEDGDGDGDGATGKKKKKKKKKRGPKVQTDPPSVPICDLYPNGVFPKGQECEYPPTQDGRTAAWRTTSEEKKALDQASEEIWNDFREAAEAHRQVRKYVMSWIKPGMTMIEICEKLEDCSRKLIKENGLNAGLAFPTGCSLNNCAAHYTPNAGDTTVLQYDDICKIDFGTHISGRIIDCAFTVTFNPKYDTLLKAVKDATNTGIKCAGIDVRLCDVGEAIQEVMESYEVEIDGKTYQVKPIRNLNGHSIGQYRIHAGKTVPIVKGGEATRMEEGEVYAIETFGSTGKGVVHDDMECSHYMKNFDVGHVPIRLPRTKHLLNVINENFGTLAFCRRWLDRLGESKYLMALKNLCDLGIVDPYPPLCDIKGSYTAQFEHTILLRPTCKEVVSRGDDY

Structure (SMILES): CO[C@@H]1[C@H](OC(=O)Nc2ccc3sc(B(O)O)cc3c2)CC[C@]2(CO2)[C@H]1[C@@]1(C)O[C@@H]1CC=C(C)C [No 38]
- IC50 ([1]; 72 h): > 1000 nM
- IC50 ([2]; 72 h): > 1000 nM
- IC50 [3]: < 10 nM
- IC50 ([4]; 72 h): > 1000 nM

Structure (SMILES): CO[C@@H]1[C@H](OC(=O)Nc2ccc3c(c2)C(C)OB3O)CC[C@]2(CO2)[C@H]1[C@@]1(C)O[C@@H]1CC=C(C)C (stereo partly drawn) [No 2]
- IC50 [1, 5]: < 10 nM
- IC50 [2, 5]: < 10 nM
- IC50 [3]: < 10 nM
- IC50 [4, 5]: < 10 nM

Structure (SMILES): CO[C@@H]1[C@H](OC(=O)Nc2ccc(B(O)O)cc2)CC[C@]2(CO2)[C@H]1[C@@]1(C)O[C@@H]1CC=C(C)C [No 17]
- IC50 [1, 5]: < 10 nM
- IC50 [2, 5]: 10.1 to 100 nM
- IC50 [3]: < 10 nM
- IC50 [4, 5]: 10.1 to 100 nM

Structure (SMILES): CO[C@@H]1[C@H](OC(=O)Nc2cccc(B(O)O)c2Cl)CC[C@]2(CO2)[C@H]1[C@@]1(C)O[C@@H]1CC=C(C)C [No 45]
- IC50 ([1]; 72 h): 101 to 1000 nM
- IC50 ([2]; 72 h): > 1000 nM
- IC50 [3]: < 10 nM
- IC50 ([4]; 72 h): > 1000 nM

Structure (SMILES): CO[C@@H]1[C@H](OC(=O)N(C)c2ccc(B(O)O)cc2)CC[C@]2(CO2)[C@H]1[C@@]1(C)O[C@@H]1CC=C(C)C [No 20]
- IC50 [1, 5]: 101 to 1000 nM
- IC50 [2, 5]: 101 to 1000 nM
- IC50 [3]: < 10 nM
- IC50 [4, 5]: 101 to 1000 nM

Structure (SMILES): CO[C@@H]1[C@H](OC(=O)N(C)c2cc(B(O)O)c3occc3c2)CC[C@]2(CO2)[C@H]1[C@@]1(C)O[C@@H]1CC=C(C)C [No 54]
- IC50 ([1]; 72 h): 101 to 1000 nM
- IC50 ([2]; 72 h): > 1000 nM
- IC50 [3]: < 10 nM
- IC50 ([4]; 72 h): > 1000 nM

Structure (SMILES): CO[C@@H]1[C@H](OC(=O)N(C)c2ccc3c(c2)B(O)OCC3)CC[C@]2(CO2)[C@H]1[C@@]1(C)O[C@@H]1CC=C(C)C [No 16]
- IC50 [1, 5]: 101 to 1000 nM
- IC50 [2, 5]: 101 to 1000 nM
- IC50 [3]: < 10 nM
- IC50 [4, 5]: 101 to 1000 nM

Structure (SMILES): CO[C@@H]1[C@H](OC(=O)N2CCC(B(O)O)CC2)CC[C@]2(CO2)[C@H]1[C@@]1(C)O[C@@H]1CC=C(C)C [No 52]
- IC50 ([1]; 72 h): 10.1 to 100 nM
- IC50 ([2]; 72 h): 101 to 1000 nM
- IC50 [3]: < 10 nM
- IC50 ([4]; 72 h): > 1000 nM

Structure (SMILES): CO[C@@H]1[C@H](OC(=O)N2CCc3cc(B(O)O)ccc3C2)CC[C@]2(CO2)[C@H]1[C@@]1(C)O[C@@H]1CC=C(C)C [No 44]
- IC50 ([1]; 72 h): 10.1 to 100 nM
- IC50 ([2]; 72 h): > 1000 nM
- IC50 [3]: < 10 nM
- IC50 ([4]; 72 h): > 1000 nM

Structure (SMILES): CO[C@@H]1[C@H](OC(=O)Nc2ccc(Cl)c(B(O)O)c2F)CC[C@]2(CO2)[C@H]1[C@@]1(C)O[C@@H]1CC=C(C)C [No 64]
- IC50 [1, 5]: 101 to 1000 nM
- IC50 [2, 5]: > 1000 nM
- IC50 [3]: < 10 nM
- IC50 [4, 5]: > 1000 nM

Structure (SMILES): CO[C@@H]1[C@H](OC(=O)Nc2cc(B(O)O)ccc2Cl)CC[C@]2(CO2)[C@H]1[C@@]1(C)O[C@@H]1CC=C(C)C [No 23]
- IC50 ([1]; 72 h): 101 to 1000 nM
- IC50 ([2]; 72 h): 101 to 1000 nM
- IC50 [3]: < 10 nM
- IC50 ([4]; 72 h): 101 to 1000 nM

Structure (SMILES): CO[C@@H]1[C@H](OC(=O)Nc2c(F)cccc2B(O)O)CC[C@]2(CO2)[C@H]1[C@@]1(C)O[C@@H]1CC=C(C)C [No 35]
- IC50 [1, 5]: 101 to 1000 nM
- IC50 [2, 5]: > 1000 nM
- IC50 [3]: < 10 nM
- IC50 [4, 5]: > 1000 nM

Structure (SMILES): CO[C@@H]1[C@H](OC(=O)NC(CF)c2ccc(B(O)O)cc2)CC[C@]2(CO2)[C@H]1[C@@]1(C)O[C@@H]1CC=C(C)C (stereo partly drawn) [No 48]
- IC50 ([1]; 72 h): 101 to 1000 nM
- IC50 ([2]; 72 h): > 1000 nM
- IC50 [3]: < 10 nM
- IC50 ([4]; 72 h): > 1000 nM

Structure (SMILES): CO[C@@H]1[C@H](OC(=O)Nc2csc(B(O)O)c2)CC[C@]2(CO2)[C@H]1[C@@]1(C)O[C@@H]1CC=C(C)C [No 40]
- IC50 ([1]; 72 h): 101 to 1000 nM
- IC50 ([2]; 72 h): > 1000 nM
- IC50 [3]: < 10 nM
- IC50 ([4]; 72 h): > 1000 nM

Structure (SMILES): CO[C@@H]1[C@H](OC(=O)Nc2cc(B(O)O)cc(F)n2)CC[C@]2(CO2)[C@H]1[C@@]1(C)O[C@@H]1CC=C(C)C [No 50]
- IC50 ([1]; 72 h): 10.1 to 100 nM
- IC50 ([2]; 72 h): > 1000 nM
- IC50 [3]: < 10 nM
- IC50 ([4]; 72 h): > 1000 nM
